From patent US7208528B1, “Polyamine analogues as therapeutic and diagnostic agents” (MediQuest Therapeutics, Inc., priority 1997, dated 2007)
pIC50: −log10 of the molar value.

Assays:
[1] = test system: polyamine transporter (PATr); assay: Polyamine transport (PAT) inhibition assay, 3H-spermidine uptake into MDA-MB-231 cells; assay type: cell-based, human
Protocol: (§1) The radiometric assay uses radiolabeled polyamines such as putrescine, spermidine or spermine, but, due to the low signal, large numbers of adherent or non-adherent cells are required. Additional care is required with spermine due to its nonspecific adsorption to cells and plastics. Cells are mixed with the test compounds and the radiolabeled polyamine to initiate the assay. The cells are incubated for 1–60 minutes, depending on cell type. The assay is terminated by removal of the medium and cooling the plates to 4° C. The cells are then washed with cold medium three times, dissolved in 0.1% sodium dodecyl sulfate and the radioactivity in solution is then determined by scintillation counting. This assay is difficult to scale up to a high throughput procedure due to the low signal from the radiolabel and the handling requirements inherent in procedures with radioactivity.
Therefore, the growth assay and a kinetic transport assay have been used to validate transport inhibition.
The polyamine analogues and derivatives of the invention may be evaluated for their ability to inhibit the uptake of spermidine into MDA cells in culture. Joro spider toxin JSTx-3 is available from Calbiochem; 1-Naphthylacetylspermine is available from RBI. Deoxyspergualin was a generous gift from Paul Gladstone.
300 nM 1202 was the maximum concentration tested in initial rate transport assays.

[2] = molecular target: spermidine/spermine acetyltransferase (SSAT) (Homo sapiens, UniProt P21673); assay: Spermidine/spermine acetyltransferase enzymatic activity, 14C-acetyl CoA incorporation; assay type: biochemical; settings: 1 mM spermidine, 1 mM 14C-acetyl CoA, pH 7.8
Sequence of spermidine/spermine acetyltransferase (SSAT) (P21673 whole entry, species assumed): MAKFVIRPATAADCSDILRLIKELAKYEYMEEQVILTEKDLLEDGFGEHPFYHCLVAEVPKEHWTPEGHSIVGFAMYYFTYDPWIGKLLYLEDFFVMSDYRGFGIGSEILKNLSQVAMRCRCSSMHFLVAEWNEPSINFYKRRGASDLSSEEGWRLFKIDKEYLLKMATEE
Protocol: A study was conducted to determine whether the compositions of the present invention, designed as PAT inhibitors, had other activities on the PA system. Specifically, the ability of DACS to inhibit an enzyme involved in PA recycling was evaluated. The method used was as described in Casero, R. A. et al., Biochem. J. 270:615–620 (1990) hereby incorporated by reference in its entirety. This assay measures the incorporation of ^14C-labeled acetyl CoA into spermidine to form acetylspermidine. Varying concentrations of DACS were added to a reaction mixture containing HEPES buffer, pH 7.8, 1 mM spermidine, and 1 mM ^14C-Acetyl CoA. The product is isolated by binding to phosphocellulose filter paper and the extent of reaction is determined by scintillation counting.

[3] = test system: T-cell acute lymphoblastic leukemias (ALL), glioblastomas, prostate, and colon cell lines; assay: In vitro test in combination with ODC inhibitors against several human cancer cell lines; assay type: cell-based
Protocol: DACS was tested in vitro in combination with ODC inhibitors against several human cancer cell lines. These include T-cell acute lymphoblastic leukemias (ALL), glioblastomas, prostate, and colon cell lines.

MDA-MB-231 cells = assay: Growth assay of MDA-MB-231 cells with ODC inhibitor (DFMO) and 1 μM spermidine
Protocol: The estrogen insensitive human breast carcinoma MDA-MB-231 cell line as the primary cell line in the screen. […] In order to optimize the screen for polyamine transport inhibition, 1.0 μM spermidine was added to media to reverse the effects of ODC inhibitors. The assay was also performed over seven days because this allows for the greatest dynamic range in cell growth due to the mechanism of ODC inhibitors. Cells need to divide several times before the intracellular level of polyamines begin to decrease to growth inhibitory levels.
Compounds were tested for their ability to inhibit cell growth in the presence of 1 μM spermidine and 230 μM ODC inhibitor for the MDA-MB-231 cells or 1 mM ODC inhibitor for the PC3 cells.
In our six day growth assays, 1202 was tested at increasing concentrations with the optimal concentration of DFMO.

[4] = test system: polyamine transporter (PATr); assay: Radiometric PAT assay in A172 glioblastoma cells; assay type: cell-based; settings: A172 cell line
Protocol: as §1

Solubility in water = assay type: physicochemical; settings: pH 7.0
[5] = test system: polyamine transport system of MDA cells; assay: SPD transport inhibition and recovery after washing in MDA cells; assay type: cell-based, human; settings: 3 day incubation
[6] = test system: MDA breast carcinoma cells; assay: Rescue from DFMO-induced growth inhibition of MDA cells without added polyamines, six day growth assay; assay type: cell-based, human; settings: Homo sapiens, Breast carcinoma cell, 144 h; 230 μM, no additional polyamines, six day growth assay; read-out: cell number, % of control
Protocol: An additional series of spermine amides were evaluated to extend the structure-activity relationship around this polyamine transport target.
Growth assays were done over a six day period in order to allow for polyamine depletion within cells. When synthesis of polyamines is inhibited, cells compensate by increasing transport of extracellular polyamines into the cell. Over the time course of the assay, polyamines in the culture media may be depleted resulting in growth inhibition.

MDA cells [7] = assay: Long term (three week) growth of MDA cells with DFMO, 1202 or both; assay type: cell-based, human; settings: DFMO 500 μM or 1202 60 μM alone, three weeks
MDA cells [8] = assay: Intracellular polyamine levels in MDA cells after long term treatment; assay type: cell-based, human; settings: DFMO alone, one and three weeks
Text: We examined the intracellular polyamine levels in MDA cells after 6 and 20 days of growth in the presence of polyamine synthesis inhibitor or transport inhibitor, or both.

[9] = test system: polyamine transport system of MDA cells; assay: Transport Km and Vmax with 3H-SPD after long term treatment of MDA cells; assay type: cell-based, human; settings: DFMO in the presence of SPD
Text: We wished to determine the effects of long term treatment with DFMO, 1202, or both, on polyamine transport characteristics.

[10] = test system: mutant L1210 leukemia cells deficient in polyamine uptake; settings: cited from earlier work
[11] = test system: wild-type L1210 cancer cells; settings: cited from earlier work
[12] = mice inoculated with mutant L1210 cells

SMILES: CN(C)c1cccc2c(S(=O)(=O)NCCCCCC(=O)NCCCNCCCCNCCCN)cccc12 [Compound 4, N^1-[(N^6-dansyl)-6-aminocaproyl]spermine]
- affinity higher than the compound reported by Felschow et al. [1]: 100 times
- increase in binding to the PATr by six carbon linker ([1]; versus compound without linker): 10 fold
- inhibition of SSAT enzymatic activity [2]: inhibited
- effect against tumor cell lines in vitro [3]: effective
- concentration at which compound alone becomes growth inhibitory (MDA-MB-231 cells; alone, without ODC inhibitor): 300 µM
- pIC50 (MDA-MB-231 cells; read-out: IC50 for growth in combination with ODC inhibitor (DFMO), 230 μM DFMO, 1 μM spermidine): 6.22
- reduction of cell growth (MDA-MB-231 cells; with ODC inhibitor in the presence of polyamines, day 3): 69%

SMILES: CN(C)CCCN1c2ccccc2CCc2ccccc21 [Compound 165, imipramine, reference compound]
- type of PAT inhibition ([1]; A172 and MDA cells): non-competitive
- inhibition of the PAT assay ([1]; MDA cell line): inhibited
- inhibition of the PAT assay [4]: inhibited

SMILES: NCCCCC(N)C(=O)NCCCNCCCCNCCCN [Compound 1202, N^1-Spermine-L-lysinyl amide]
- solubility (Solubility in water): ≥ 100 mM

SMILES: NCCC[C@](N)(C(=O)O)C(F)F [DFMO, α-difluoromethylornithine]
- up-regulation of SPD transport [5]: 3 fold
- activity at 230 µM [6]: 35%
- growth rate with single compound (MDA cells [7]): little difference in growth rate
- decrease in PUT levels (MDA cells [8]): 69–86%
- change in Vmax [9]: no change
- survival ([10]; PAT-deficient L1210 cells, DFMO): > 60 days
- increase in median survival time [10, 12]: 87%
- mice cured [10, 12]: 13 of 40
- increase in median survival time ([11]; mice inoculated with the parental cell line): 22%
- time to death ([11]; wild-type L1210, treated with DFMO): 12 days
- effect on growth of single agent (MDA-MB-231 cells; alone, in the presence of 1 μM SPD): minimal
